Source: US7049455B2, “Process for producing shogaols and intermediates for the synthesis thereof” (Toagosei Co., Ltd., priority 2002, dated 2006)
“Also recorded” adds a separate entry of the source.

Test system: mushroom-derived tyrosinase
Test: inhibition of the activity of mushroom-derived tyrosinase, L-dopa as substrate
Assay type: biochemical
Details: L-dopa as a substrate, compared with arbutin (Tokyo Kasei Kogyo)
From the text: A test of [6]-shogaol obtained in Example 5 about the inhibition of the activity of mushroom-derived tyrosinase was done, using L-dopa as a substrate.

SMILES: CCCCC/C=C/C(=O)CCc1ccc(O)c(OC)c1 [[6]-shogaol]
- inhibition of tyrosinase activity: inhibited tyrosinase activity; also recorded: inhibitory activity at the same level as that of arbutin
